Reference: patent US12031173B2, “Methods of producing polyol lipids” (THE REGENTS OF THE UNIVERSITY OF CALIFORNIA, priority 2016, dated 2024)

Assay: Surface tension of aqueous PEFA solutions, Wilhelmy plate method
Assay type: physicochemical
Settings: aqueous solution
Experimental: Surface Tension: Surface tensions were measured, using Wilhelmy plate method (Digital Tensiometer K10ST, KRÜSS) for different concentrations of PEFA in aqueous solution. The stabilization time was from 30 minutes in higher concentration to as long as 2 hours in lower concentration (below 2.5 mg/L). The final data was recorded when the measured surface tension became stable.

Average area occupied by each molecule: 54.7 Å^2/molecule
Surface excess concentration: 2.93 × 10^−6 mol/m^2
Critical Micelle Concentration (Wilhelmy plate): 15.2 mg/L
Minimum surface tension (Wilhelmy plate): 36.8 mN/m
Slope of linear part for surface tension line (Wilhelmy plate): −11.14 mN/m
Compound: CC(=O)OC[C@H]1O[C@H]2O[C@@H](C)CCCCCC/C=C\CCCCCCCC(=O)O[C@H]3[C@H](O)[C@@H](O)[C@H](O[C@@H]2[C@@H](O)[C@@H]1O)O[C@@H]3COC(C)=O [Sophorolipid, 1′,4″-Sophorolactone 6′,6″-diacetate]
